This note sets out measurements from US11617751B2, “Pharmaceutical composition containing a tetrahydrofolic acid” (Bayer Pharma AG, priority 2006, dated 2023).

The conditions of the data set: in presence of polyvinylpyrrolidone (PVP); data not shown.

With `CN1c2c(nc(N)[nH]c2=O)NC[C@@H]1CNc1ccc(C(=O)N[C@@H](CCC(=O)O)C(=O)O)cc1` [5-methyl-(6S)-tetrahydrofolic acid], the “effect of PVP on break-down of 5-methyl-(6S)-tetrahydrofolic acid” value is on record as “accelerated the break-down”.
